In patent US8114645B2 (priority 2006, dated 2012):
Where two headings read alike, the source gives them in different places.

What was measured:
[1] = tested on: E. coli DH10B harboring pBad33MevT or pBad33; conditions: LB with 10 g/L NaCl vs 0.5 g/L NaCl
Experimental: To further test if cells inhibited by the accumulation of HMG-CoA are suffering from osmotic stress, cells harboring pBad33MevT or pBad33 (the empty vector control) were incubated and induced in Luria Broth (LB) media with low (0.5 g/L) and high (10 g/L) concentrations of NaCl. […] Both culture media were supplemented with 1% (wt/vol) glycerol and 50 μg/ml chloramphenicol. Starter cultures of DH10B harboring either pBad33MevT or pBad33 were inoculated from single colonies and incubated overnight at 37° C. in LB media supplemented with 0.06% glucose (to repress the PBAD promoter) and chloramphenicol. Overnight starter cultures were diluted to an OD600 of 0.05 in either the low or high NaCl media in baffled shake flasks, incubated at 37° C. with continuous shaking and induced with the addition of 2 mM arabinose at an OD600 of approximately 0.39. The optical density of the culture was measured using a UV-Spectrophotometer (Beckman).

[2] = tested on: E. coli DP10 expressing MevT gene constructs; assay: Fatty acid supplementation of growth inhibited cells, 96-well plates, OD; type: cell-based; conditions: 100 μg/ml fatty acid with 400 μg/ml Brij, defined C medium, 96-well plate, arabinose induced; for growth of MevT expressing cells (pBad33MevT): E. coli DP10 pBad33MevT; for growth of cells containing pHMGS: E. coli DP10 pHMGS
Experimental: Media components and chemicals were purchased from Sigma-Aldrich (St. Louis, Mo.) and Fisher Scientific (Pittsburgh, Pa.). For cloning and propagation of E. coli strains harboring the various recombinant pathways, Luria broth with Miller's modification (Sigma) was used with appropriate antibiotics for plasmid selection and 0.06% glucose for the repression of PBAD and PLAC promoter systems. DL-mevalonate used for media supplementation was prepared by mixing 1 volume of 2 M DL-mevalonic acid lactone (Sigma-Aldrich) with 1.02 volumes of 2 M KOH and incubating at 37° C. for 30 min. Campos et al. (2001) Biochem J 353, 59-67. […] Enzymes for molecular biology were purchased from New England Biolabs (Beverly, Mass.) and Invitrogen. E. coli strains TOP 10 and DH10B, both from Invitrogen, were used for cloning and plasmid construction.
The optical density of samples taken from cultures in baffled flasks was measured using a UV-Spectrophotometer (Beckman), while the OD600 of cultures in 96-well microtiter plates was measured using a microtiter plate reader (SpectraMax, Molecular Devices).
E. coli DP10 cells harboring pBad33, pBad33MevT, pMevT(C159A), pHMGS, or pHMGSR were incubated and induced in 96-well plates in fully defined C medium containing 50 μg/ml chloramphenicol (see material and methods) with supplemental cis-Δ^9-18:1, 16:0, cis-Δ^9-16:1, or a equal mass mixture of 16:0 and cis-Δ^9-16:1. […] Overnight starter cultures were used to inoculate fresh C medium in a 96-well microtiter plate.

[3] = tested on: E. coli strains carrying a temperature sensitive fabD allele; conditions: Harder et al. 1972, 1974; cited from earlier work
[4] = tested on: E. coli DP10 containing pBad33MevT, pHMGS or inactive controls; assay: Cell growth with increased supplementation of saturated fatty acid 16:0, baffled shake flasks, OD600; type: cell-based
[5] = tested on: E. coli DH10B containing plasmids pMevT, pMBIS, and pADS; assay: Amorpha-4,11-diene production assay with mevalonate supplementation (GC-MS of dodecane overlay); type: cell-based; conditions: exogenous mevalonate added, tested up to 20 mM D,L-mevalonate; vs no supplementation
Experimental: Amorpha-4,11-diene production from E. coli strains expressing the full heterologous mevalonate pathway and amorphadiene synthase with or […] supplementation was assayed. E. coli DH10B containing plasmids pMevT, pMBIS, and pADS (FIGS. 5A and 5B) were grown in C medium containing 3.4% glycerol, 1% Casamino acids (BD, Franklin Lakes, N.J.), micronutrients, 50 μg/ml carbenicillin, 5 μg/ml tetracycline, and 25 μg/ml chloramphenicol with varying concentrations of exogenous mevalonate. […] Prior to inoculation, an overlay of 20% (v/v) dodecane (Sigma) was added to each culture flask to trap the volatile sesquiterpene product. […]
Dodecane/ethyl acetate extracts were analyzed on a Hewlett-Packard 6890 gas chromatograph-mass spectrometer (GC/MS). […] The resolved samples were analyzed by a Hewlett-Packard model 5973 mass selective detector that monitored ions 189 and 204 m/z. […] Since pure standards of amorpha-4,11-diene are not currently available, the concentrations were quantified in terms of caryophyllene equivalents. A standard curve for caryophyllene was determined, based on a pure standard. […]
To begin improving terpenoid production from engineered E. coli, limiting steps in the engineered pathway to amorphadiene were determined, as described in U.S. Pat. No. 7,183,089, U.S. Provisional Patent Application No. 60/802,266, Pitera et al. Metab Eng 9(2): 193-207 (2007), and as follows. […]

E. coli = assay: Effect of extra-cellular mevalonate on growth of E. coli; type: cell-based; conditions: high extra-cellular concentrations
[6] = tested on: temperature sensitive mutants of fabB; conditions: Broekman and Steenbakkers 1973; cited from earlier work

SMILES: [Cl-].[Na+] [NaCl]
- growth of the empty vector control strain ([1]; DH10B containing pBad33): did not significantly affect
- growth inhibition of E. coli cells expressing the MevT operon from pBad33MevT ([1]; DH10B, 2 mM arabinose): effectively alleviated the growth inhibition
- osmolality of the culture medium (culture medium containing NaCl at 0.5 g/L): about 125 mOsm/kg H2O
- osmolality of the culture medium (culture medium containing NaCl at 10 g/L): about 452 mOsm/kg H2O

SMILES: CCCCCC/C=C\CCCCCCCC(=O)O [cis-Δ^9-16:1, palmitoleic acid]
- growth of MevT expressing cells (pBad33MevT) [2]: detrimental to the growth
- growth of cells containing pHMGS [2]: detrimental to the growth
- growth at non-permissive temperatures [3]: not

SMILES: CCCCCCCCCCCCCCCC(=O)O [16:0, palmitic acid (hexadecanoic acid)]
- growth of MevT expressing cells (pBad33MevT) [2]: improved the growth
- growth of cells containing pHMGS [2]: clear, positive effect on the growth
- cell growth on increasing the concentration above 100 μg/ml ([4]; 200 μg/ml vs 100 μg/ml, baffled shake flasks): no additional effect on cell growth
- cell growth of the inactive pathway controls ([4]; DP10 harboring pMevT(C159A) or pHMGS(C159A), 100 or 200 μg/ml): not affected
- growth inhibition caused by high expression of the MevT operon ([4]; E. coli DP10 pBad33MevT, 100 μg/ml with 400 μg/ml Brij, baffled shake flasks): completely alleviated the growth inhibition
- growth of cells expressing HMGS alone ([4]; E. coli DP10 pHMGS, 100 μg/ml with 400 μg/ml Brij, baffled shake flasks): only improving the growth
- growth at non-permissive temperatures [3]: shown to grow at non-permissive temperatures

SMILES: CC(O)(CCO)CC(=O)O (stereo not drawn) [mevalonate]
- production of amorphadiene [5]: increased the production of amorphadiene
- growth of E. coli (E. coli): no significant effect on the growth

SMILES: CCCCCCCC/C=C\CCCCCCCC(=O)O [cis-Δ^9-18:1, oleic acid]
- growth of MevT expressing cells (pBad33MevT) [2]: to a lesser extent, cis-Δ^9-18:1 improved the growth
- growth under non-permissive conditions [6]: can grow
